Values joined by “and” are separate entries in the source; they are usually repeats but may differ in a detail not shown here. Equal values may be shown once.

The target in series [1] is DegP protease (Escherichia coli, UniProt P0C0V0). The note with it: for effect of divalent cation on DegP cleavage of PapA-6H4A-rcm: 5 mM.
Series [2] concerns the target T1, DegP (Escherichia coli, UniProt P0C0V0). The note with it: cited from earlier work.
Series [3] has as its target T1, DegP. As to conditions: for cleavage of fluorescence-quench peptide by DegP: 8 μM (SPCJ-12) or 10 μM peptide, 25 mM HEPES, 5 mM CaCl2, 45° C.
Series [4] addresses T1, DegP. As to conditions: scaled-up (5 ml) cleavage reaction, MALDI-TOF MS of products.
Series [5] concerns the target T1, DegP. The note with it: 7-mer and 12-mer Abz-tagged cellulose-bound peptides, 0.28 mg/ml DegP, 5 mM MgCl2, up to 28 hours.
Series [6] deals with SPCJ-14 - Abz-[…]-DAP(Dnp)-NH2.

As to `[Ca+2].[Cl-].[Cl-]` [CaCl2, reference compound], in series [1], the “effect of divalent cation on DegP cleavage of PapA-6H4A-rcm” value was “stimulated DegP cleavage”.

For the molecule `[Cl-].[Cl-].[Mg+2]` [MgCl2, reference compound], the “input PapA-6H4A-rcm cleaved by DegP in presence of divalent cation” value in series [1] (5 mM cation, 20 μg DegP, 20 μg substrate, 4 hours at 45° C.) is listed as around 50%. Take `[Cl][Mn][Cl]` [MnCl2, reference compound]: the “effect of divalent cation on DegP cleavage of PapA-6H4A-rcm” value in series [1] is recorded as “stimulated DegP cleavage”. Consider `O=S(=O)(F)Cc1ccccc1` [phenylmethylsulfonylfluoride], for which the “inhibition of DegP activity” value in series [2] is reported as “not inhibited”. As to Abz-HYTASSK-DAP(Dnp)-NH2 [SPCJ-14], the “cleavage of fluorescence-quench peptide by DegP” value in series [3] (5 μg DegP) is on record as “lack of cleavage”. The “inhibition of DegP cleavage of SPCJ-13” value in series [3] (10-fold molar excess (100 μM vs 10 μM SPCJ-13), 30 minutes pre-incubation with 5 μg DegP, then 60 minutes) is listed as “blocked cleavage of SPCJ-13”.

Abz-HYTAVVK-DAP(Dnp)-NH2 [SPCJ-13]: the “cleavage of fluorescence-quench peptide by DegP” value in series [3] (5 μg DegP) was “cleaved SPCJ-13 in a time-dependent fashion”. The “DegP cleavage site in substrate peptide” value in series [4] is “cleavage between the paired valine residues”.

Turning to Abz-HYTAVVKKSSAV-DAP(Dnp)-NH2 [SPCJ-12], the “cleavage of fluorescence-quench peptide by DegP” value in series [3] (5 μg DegP) is reported as “cleaved SPCJ-12 in a time-dependent fashion”. Besides, the “DegP cleavage site in substrate peptide” value in series [4] was “cleaved between the paired valine residues”. As to DGENVLH, the “cleavage of PapA library peptide by DegP in solid-phase scan” value (“cleavage of PapA library peptide by DegP” for short) in series [5] was “cleaved by DegP”. Consider ELVNCDI, for which, in series [5], the “cleavage of PapA library peptide by DegP” value is listed as “cleaved by DegP”. As for FTGPIVNGHSDE, in series [5], the “cleavage of PapA library peptide by DegP” value is on record as “cleaved by DegP”. For the molecule HYTAVVK, the “cleavage of PapA library peptide by DegP” value in series [5] was “cleaved by DegP”.

On to HYTAVVKKSSAV, for which, in series [5], the “cleavage of PapA library peptide by DegP” value is “cleaved by DegP”. For KLAFTGPIVNGH, the “cleavage of PapA library peptide by DegP” value in series [5] was “cleaved by DegP”. Regarding KSMCMKLSFS [SPCJ-1], in series [3] (200 μM peptide added at onset of incubation, 5 μg DegP), the “effect of peptide on DegP cleavage of SPCJ-13” value is reported as “enhanced cleavage of SPCJ-13”. In addition, in series [1] (200 μM peptide, 5 μg DegP, 40 μg substrate, 5 mM MgCl2, 45° C., 60 minutes), the “PapA-6H4A-rcm cleaved by DegP in presence of activating peptide, 60 minutes” value is 50% and > 50%. Further, the “PapA-6H4A-rcm cleaved by DegP in presence of activating peptide, four hours” value in series [1] (200 μM peptide, 5 μg DegP, 40 μg substrate, 5 mM MgCl2, 45° C., four hours) is around 90%. For LDIELVNCDITA, the “cleavage of PapA library peptide by DegP” value in series [5] is “cleaved by DegP”. NGHSDEL: the “cleavage of PapA library peptide by DegP” value in series [5] is “cleaved by DegP”. On the same count and under the same terms, under NVLHYTA stands “cleaved by DegP”; under TLKDGENVLHYT, “cleaved by DegP”.

B1: DegP protease (protein)
chain: AETSSATTAQQMPSLAPMLEKVMPSVVSINVEGSTTVNTPRMPRNFQQFFGDDSPFCQEGSPFQSSPFCQGGQGGNGGGQQQKFMALGSGVIIDADKGYVVTNNHVVDNATVIKVQLSDGRKFDAKMVGKDPRSDIALIQIQNPKNLTAIKMADSDALRVGDYTVAIGNPFGLGETVTSGIVSALGRSGLNAENYENFIQTDAAINRGNSGGALVNLNGELIGINTAILAPDGGNIGIGFAIPSNMVKNLTSQMVEYGQVKRGELGIMGTELNSELAKAMKVDAQRGAFVSQVLPNSSAAKAGIKAGDVITSLNGKPISSFAALRAQVGTMPVGSKLTLGLLRDGKQVNVNLELQQSSQNQVDSSSIFNGIEGAEMSNKGKDQGVVVNNVKTGTPAAQIGLKKGDVIIGANQQAVKNIAELRKVLDSKPSVLALNIQRGDSTIYLLMQ
On to B1, for which the “cleavage in the fluorescent-quench peptide assay” value in series [6] is listed as “SPCJ-14 was not cleaved”.

Values taken from patent US20030109675A1 (priority 2001, published 2003).
